Experimental data from patent publication US10517889B2, “Modulators of SMAD7 expression” (Ionis Pharmaceuticals, Inc., priority 2017, dated 2019).
Strand notation (5' to 3'): a small letter for the sugar, then the base; units joined by * are phosphorothioate-linked, units joined directly phosphodiester-linked; [ ] holds rarer units or linkages, { } end groups; capitals alone tell only the bases. e = 2'-O-(2-methoxyethyl) (MOE); [5mC] = 5-methylcytosine; d = 2'-deoxy (DNA)

Experiments:
human SMAD7 mRNA [1] = experiment: Antisense inhibition of human SMAD7 mRNA expression in Hep3B cells by 5-10-5 MOE gapmers, single concentration, electroporation, RT-PCR (Example 1, Study 1 and 2); assay type: cell-based; settings: for % Inhibition: Study 2, electroporation with 15,000 nM antisense oligonucleotide; for % Inhibition of SMAD7 mRNA: electroporation with 15,000 nM antisense oligonucleotide (Study 2)
Outline: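 Readout is percent SMAD7 mRNA inhibition versus untreated cells, measured by qRT-PCR (RTS5062) and corrected for total RNA by RIBOGREEN. Oligonucleotide, 5,000 nM or 15,000 nM, was delivered by electroporation into Hep3B cells at 20,000 per well. RNA was collected about 24 h later.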

human SMAD7 mRNA [2] = experiment: Dose-dependent inhibition of human SMAD7 mRNA expression in Hep3B cells (Example 3, Study 1 and 2); assay type: cell-based; settings: electroporation; for % inhibition of SMAD7 mRNA expression: approximately 16 hours; for IC50: Study 1 (312.5-20000 nM)
Outline: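 Hep3B cells, 20,000 per well, electroporated with antisense oligonucleotide at 0.31, 1.25, 5.00 or 20.00 μM (first series) or 0.74, 2.22, 6.67 or 20.00 μM (second series). After ~16 h, SMAD7 mRNA measured by RT-qPCR (RTS5062), normalised to RIBOGREEN total RNA. Percent inhibition vs untreated cells; IC50 derived.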

[3] = 5-10-5 MOE gapmers targeting SEQ ID NO: 1 and 2
[4] = electroporation, 5,000 nM, approximately 24 hours, relative to untreated control cells, gapmers targeting SEQ ID NO: 1 and 2
[5] = electroporation, 15,000 nM antisense oligonucleotide (Study 2), 5-10-5 MOE gapmers targeting SEQ ID NO: 1 and 2
[6] = electroporation, 15,000 nM, approximately 24 hours, relative to untreated control cells, gapmers targeting SEQ ID NO: 1 and 2
[7] = 312.5 nM, Study 1, relative to untreated control cells

Row | Substance | % Inhibition (human SMAD7 mRNA [1]; [3]) | % Inhibition of SMAD7 mRNA (human SMAD7 mRNA [1]; [3]) | % inhibition of SMAD7 mRNA expression (human SMAD7 mRNA [1]; [4]) | % inhibition of SMAD7 mRNA expression (human SMAD7 mRNA [1]; [5]) | % inhibition of SMAD7 mRNA expression (human SMAD7 mRNA [1]; [6]) | % inhibition of SMAD7 mRNA expression (human SMAD7 mRNA [2]; [7]) | % inhibition of SMAD7 mRNA expression (human SMAD7 mRNA [2]; 1250.0 nM, Study 1) | % inhibition of SMAD7 mRNA expression (human SMAD7 mRNA [2]; 5000.0 nM, Study 1) | % inhibition of SMAD7 mRNA expression (human SMAD7 mRNA [2]; 20000.0 nM, Study 1) | IC50 (human SMAD7 mRNA [2]) | % inhibition of SMAD7 mRNA expression (human SMAD7 mRNA [1]; electroporation, 15,000 nM, approximately 24 hours, gapmers targeting SEQ ID NO: 3 and 4)
1 | 483663 (antisense e[5mC]*eA*eG*e[5mC]*e[5mC]*dT*d[5mC]*dT*dT*dG*dA*d[5mC]*dT*dT*d[5mC]*e[5mC]*eG*eA*eG*eG) [compound 483663] | 56% | 35% | 47% | 41% | 49% | 0% | 0% | 14% | 27% | > 20 µM | –
2 | 771345 (antisense eA*e[5mC]*eA*eG*e[5mC]*dA*dT*d[5mC]*dT*dG*dG*dA*d[5mC]*dA*dG*eT*e[5mC]*eA*eG*eT) [compound 771345] | – | – | – | – | – | 6% | 19% | 49% | 69% | 6 µM | 54%
3 | 771386 (antisense e[5mC]*eT*eG*eG*eA*d[5mC]*dA*dG*dT*d[5mC]*dT*dG*d[5mC]*dT*dG*eT*eG*eG*eA*eT) [compound 771386] | 57% | – | – | – | – | 9% | 3% | 25% | 60% | 19 µM | –
4 | 771387 (antisense eA*eG*e[5mC]*eA*eT*d[5mC]*dT*dG*dG*dA*d[5mC]*dA*dG*dT*d[5mC]*eT*eG*e[5mC]*eT*eG) [compound 771387] | – | 59% | – | 6% | – | 8% | 13% | 28% | 70% | 10 µM | –
5 | 771390 (antisense e[5mC]*eG*eG*e[5mC]*eT*dG*d[5mC]*d[5mC]*d[5mC]*d[5mC]*dA*d[5mC]*d[5mC]*d[5mC]*d[5mC]*eG*e[5mC]*eG*e[5mC]*eG) [compound 771390] | 66% | – | 32% | – | – | 0% | 12% | 26% | 51% | > 20 µM | –
6 | 771397 (antisense eG*eA*eG*e[5mC]*eG*dG*d[5mC]*dG*dG*d[5mC]*dG*dG*d[5mC]*d[5mC]*d[5mC]*eG*eA*eG*eG*eG) [compound 771397] | – | – | – | 55% | – | 0% | 0% | 41% | 51% | 15 µM | –
7 | 771399 (antisense eG*e[5mC]*e[5mC]*e[5mC]*eG*dG*dG*d[5mC]*dA*dG*dG*dA*dG*d[5mC]*dG*eG*e[5mC]*eG*eG*e[5mC]) [compound 771399] | 33% | – | – | – | – | 0% | 6% | 26% | 53% | > 20 µM | –
8 | 771403 (antisense eG*eA*eA*e[5mC]*eA*dT*dG*dA*d[5mC]*d[5mC]*dT*d[5mC]*d[5mC]*dG*d[5mC]*eA*e[5mC]*eA*e[5mC]*e[5mC]) [compound 771403] | – | – | – | 62% | – | 5% | 4% | 25% | 35% | > 20 µM | –
9 | 771407 (antisense eA*eG*eG*eA*eG*d[5mC]*dG*dA*dA*d[5mC]*dA*dT*dG*dA*d[5mC]*e[5mC]*eT*e[5mC]*e[5mC]*eG) [compound 771407] | 59% | – | – | – | – | 17% | 0% | 30% | 46% | > 20 µM | –
10 | 771414 (eT*e[5mC]*eG*eG*e[5mC]*dT*dG*dT*d[5mC]*d[5mC]*dG*dT*d[5mC]*dG*d[5mC]*e[5mC]*e[5mC]*e[5mC]*eT*eT; antisense) [compound 771414] | – | – | – | – | 65% | 0% | 2% | 43% | 33% | > 20 µM | –
11 | 771416 (e[5mC]*e[5mC]*e[5mC]*e[5mC]*eA*dT*dG*d[5mC]*dG*d[5mC]*dT*d[5mC]*dG*dG*d[5mC]*eT*eG*eT*e[5mC]*e[5mC]; antisense) [compound 771416] | 58% | – | – | – | – | 0% | 3% | 19% | 35% | > 20 µM | –
12 | 771418 (e[5mC]*e[5mC]*eG*e[5mC]*e[5mC]*dA*d[5mC]*d[5mC]*dG*dG*d[5mC]*d[5mC]*d[5mC]*d[5mC]*dA*eT*eG*e[5mC]*eG*e[5mC]; antisense) [compound 771418] | – | – | – | 60% | – | 3% | 0% | 0% | 0% | – | –
13 | 771439 (eG*eG*e[5mC]*eT*eG*d[5mC]*dG*d[5mC]*dG*d[5mC]*d[5mC]*dG*dG*d[5mC]*dG*eG*eG*e[5mC]*eG*e[5mC]; antisense) [compound 771439] | 48% | – | – | – | – | 0% | 24% | 49% | 55% | 9 µM | –
14 | 771441 (e[5mC]*eG*eA*eG*eG*dG*d[5mC]*dG*dG*d[5mC]*dT*dG*d[5mC]*dG*d[5mC]*eA*eG*eG*e[5mC]*eT; antisense) [compound 771441] | – | 60% | – | 10% | – | 0% | 5% | 45% | 64% | 9 µM | –
